Assay results: ChEMBL document CHEMBL1201862, “PubChem BioAssay data set” (2004)
Active and inactive are the calls of the source.

Assays:
Orexin receptor type 2 [1] = target: T1, Orexin receptor type 2 (Homo sapiens, UniProt O43614); test: Counterscreen assay for antagonists of the orexin 1 receptor (OX1R; HCRTR1): Homogeneous Time Resolved Fluorescence (HTRF)-based cell-based dose response assay for antagonists of the orexin 2 receptor (OX2R; HCRTR2), run by assay provider.; type: functional
T1 sequence (O43614 whole entry): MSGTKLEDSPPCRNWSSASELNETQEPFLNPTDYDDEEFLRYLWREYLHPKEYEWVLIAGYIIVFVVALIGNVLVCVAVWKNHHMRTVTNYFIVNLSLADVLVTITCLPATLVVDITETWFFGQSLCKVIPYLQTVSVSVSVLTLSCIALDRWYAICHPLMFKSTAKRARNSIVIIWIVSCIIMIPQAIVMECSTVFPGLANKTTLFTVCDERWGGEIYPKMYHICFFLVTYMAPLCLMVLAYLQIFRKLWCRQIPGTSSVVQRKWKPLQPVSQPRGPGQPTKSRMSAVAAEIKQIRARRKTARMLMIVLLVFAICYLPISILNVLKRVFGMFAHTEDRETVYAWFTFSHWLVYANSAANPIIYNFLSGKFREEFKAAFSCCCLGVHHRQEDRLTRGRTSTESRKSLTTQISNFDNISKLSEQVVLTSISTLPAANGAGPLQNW

[2] = target: T2, Orexin/Hypocretin receptor type 1 (Homo sapiens, UniProt O43613); test: (§1) Fluorescence-based cell-based high throughput dose response assay for antagonists of the orexin 1 receptor (OX1R; HCRTR1). [Related pubchem assays (depositor defined):AID434989, AID435008, AID463079, AID485270, AID492963, AID492964, AID492965, AID493232, AID504717, AID504718]; type: functional
T2 sequence (O43613 whole entry): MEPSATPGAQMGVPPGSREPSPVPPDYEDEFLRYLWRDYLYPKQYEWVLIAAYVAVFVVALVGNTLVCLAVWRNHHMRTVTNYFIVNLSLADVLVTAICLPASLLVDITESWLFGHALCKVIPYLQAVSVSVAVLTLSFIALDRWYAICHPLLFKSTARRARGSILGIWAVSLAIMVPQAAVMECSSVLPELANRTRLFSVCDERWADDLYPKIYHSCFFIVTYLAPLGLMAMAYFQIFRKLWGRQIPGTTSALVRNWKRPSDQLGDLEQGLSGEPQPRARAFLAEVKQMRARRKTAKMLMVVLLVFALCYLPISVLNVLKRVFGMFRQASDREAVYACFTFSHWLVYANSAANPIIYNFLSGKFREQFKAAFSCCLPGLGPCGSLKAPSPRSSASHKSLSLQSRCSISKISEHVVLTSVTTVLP

[3] = tested on: Streptococcus sp. 'group A'; test: Streptococcus pyogenes SK(-)GAS viability under kanamycin – luminescence, BacTiterGlo, confirmation, counter-screen for streptokinase expression inhibitor project, dose response (AID 1900); type: functional, organism-based
Orexin receptor type 2 [4] = target: T1, Orexin receptor type 2; test: Counterscreen assay for antagonists of the orexin 1 receptor (OX1R; HCRTR1): Fluorescence-based cell-based dose response assay for antagonists of the orexin 2 receptor (OX2R; HCRTR2), run by assay provider.; type: functional
Streptokinase A = target: T3, Streptokinase A (Streptococcus pyogenes serotype M1, UniProt P10520); test: viability-normalized secreted streptokinase activity reduction – plasminogen activation absorbance, OD405, dose response (AID 1914); type: functional, Streptococcus pyogenes M1 GAS;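 note: secreted streptokinase activity via plasminogen activation per viability signal from cell pellet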
T3 sequence (P10520 whole entry): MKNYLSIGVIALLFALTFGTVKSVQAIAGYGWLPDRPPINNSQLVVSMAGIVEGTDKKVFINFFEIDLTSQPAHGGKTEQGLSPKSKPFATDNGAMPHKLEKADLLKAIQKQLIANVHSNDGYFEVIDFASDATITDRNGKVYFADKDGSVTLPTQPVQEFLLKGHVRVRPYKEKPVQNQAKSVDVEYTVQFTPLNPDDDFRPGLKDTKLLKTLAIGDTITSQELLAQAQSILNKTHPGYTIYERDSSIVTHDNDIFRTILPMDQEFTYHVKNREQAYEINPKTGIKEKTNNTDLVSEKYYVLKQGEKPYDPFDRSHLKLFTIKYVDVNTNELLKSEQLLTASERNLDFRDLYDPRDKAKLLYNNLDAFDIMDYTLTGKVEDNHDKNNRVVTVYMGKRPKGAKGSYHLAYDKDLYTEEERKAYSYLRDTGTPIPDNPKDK

CAAX prenyl protease 2 = target: T4, CAAX prenyl protease 2 (Saccharomyces cerevisiae S288c, UniProt Q03530); type: biochemical
T4 sequence (Q03530 whole entry): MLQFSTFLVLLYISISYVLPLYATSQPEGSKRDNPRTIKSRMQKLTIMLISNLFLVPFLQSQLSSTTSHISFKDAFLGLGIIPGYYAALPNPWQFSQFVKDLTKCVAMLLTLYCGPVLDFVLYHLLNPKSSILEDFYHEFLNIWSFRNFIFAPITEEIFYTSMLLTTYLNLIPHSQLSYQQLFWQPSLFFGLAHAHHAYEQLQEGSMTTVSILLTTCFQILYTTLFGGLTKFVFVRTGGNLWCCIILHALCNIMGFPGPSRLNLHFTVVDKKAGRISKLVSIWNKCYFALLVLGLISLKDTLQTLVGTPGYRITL

[5] = A549 cell cytotoxicity, dose response, cytotoxicity control, plate reader, cherry-pick, antagonist series (AID 743412); type: functional, cell-based
CHO-K1 = test: (§2) Counterscreen for antagonists of the orexin 1 receptor (OX1R; HCRTR1): Homogeneous time resolved fluorescence (HTRF)-based cell-based dose response assay to identify antagonists of the parental CHO-K1 cell line. [Related pubchem assays (depositor defined):AID434989, AID435008, AID463079, AID485270, AID492963, AID492964, AID492965, AID493232, AID504699, AID504701]; type: functional; details: Cricetulus griseus
[6] = as §2, with “Fluorescence-based” for “Homogeneous time resolved fluorescence (HTRF)-based”, “cell-based high throughput” for “cell-based”, “CHO” for “CHO-K1”; type: functional
[7] = blockade of melanocortin 4 receptor signaling – cell-based, plate reader, cherry pick, counter-screen for LGR2 antagonist project, dose response (AID 743444); type: functional;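 note: transfected HEK 293 cells stimulated with alpha-MSH peptide; potency of inhibitors of the alpha-MSH evoked signal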
[8] = target: T2, Orexin/Hypocretin receptor type 1; test: as §1, with “Homogeneous Time Resolved Fluorescence (HTRF)-based” for “Fluorescence-based”; type: functional
Streptococcus = test: GAS UMAA2166 growth inhibition – luminescence, BacTiterGlo, counter-screen for streptokinase expression inhibitor project, dose response (AID 1915); type: functional, organism-based;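 note: potency for reduction of bacterial viability or growth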
[9] = viability loss in HEK293 cells – cell-based, plate reader, cherry-picked samples, cytotoxicity control, dose response (AID 743446); type: functional
[10] = toxicity toward HepG2 liver cells – cell-based, plate reader, cherry-pick, antagonist series, cytotoxicity control, dose response (AID 743416); type: functional
[11] = target: T5, High affinity choline transporter 1 (Homo sapiens, UniProt Q9GZV3); test: human choline transporter potentiators, potency – cell-based, 10-point CRC, membrane potential dye, dose response (AID 602376); type: functional
T5 sequence (Q9GZV3 whole entry): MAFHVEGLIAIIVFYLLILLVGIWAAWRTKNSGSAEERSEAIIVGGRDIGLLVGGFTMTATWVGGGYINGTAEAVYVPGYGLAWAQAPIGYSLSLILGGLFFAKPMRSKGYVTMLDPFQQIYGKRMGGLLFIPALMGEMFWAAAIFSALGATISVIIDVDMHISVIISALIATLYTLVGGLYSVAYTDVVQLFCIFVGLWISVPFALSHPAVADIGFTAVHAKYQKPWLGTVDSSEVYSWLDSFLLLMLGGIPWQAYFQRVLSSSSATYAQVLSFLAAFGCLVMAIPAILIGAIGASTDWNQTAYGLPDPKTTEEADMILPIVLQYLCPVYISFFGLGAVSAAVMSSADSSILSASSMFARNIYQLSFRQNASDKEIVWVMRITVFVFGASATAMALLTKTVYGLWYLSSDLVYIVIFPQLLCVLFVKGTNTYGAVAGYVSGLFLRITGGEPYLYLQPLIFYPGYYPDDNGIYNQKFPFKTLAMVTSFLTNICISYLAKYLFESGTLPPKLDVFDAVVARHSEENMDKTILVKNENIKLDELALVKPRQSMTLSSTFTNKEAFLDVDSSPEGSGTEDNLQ

[12] = viability of PTEN-deleted HCT116 cells – cell-based, HCT116 PTEN knockout, dose response (AID 1047); type: functional;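 note: HCT116 colon tumor cells with PTEN knocked out; cells exposed to compound for 60 hours before readout; potency for loss of cell viability measured by luminescence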
[13] = viability of HCT116 lacking mutant beta-catenin – cell-based, human colon tumor, dose response (AID 1045); type: functional;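 note: HCT116 colon tumor cells with beta catenin knocked out; cells exposed to compound for 60 hours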
Insulin-degrading enzyme [14] = target: T6, Insulin-degrading enzyme (Homo sapiens, UniProt P14735); test: cellular IDE activation of Abeta substrate cleavage – fluorescence polarization, HEK cells, dose response (AID 588439); type: functional, cell-based
T6 sequence (P14735 whole entry): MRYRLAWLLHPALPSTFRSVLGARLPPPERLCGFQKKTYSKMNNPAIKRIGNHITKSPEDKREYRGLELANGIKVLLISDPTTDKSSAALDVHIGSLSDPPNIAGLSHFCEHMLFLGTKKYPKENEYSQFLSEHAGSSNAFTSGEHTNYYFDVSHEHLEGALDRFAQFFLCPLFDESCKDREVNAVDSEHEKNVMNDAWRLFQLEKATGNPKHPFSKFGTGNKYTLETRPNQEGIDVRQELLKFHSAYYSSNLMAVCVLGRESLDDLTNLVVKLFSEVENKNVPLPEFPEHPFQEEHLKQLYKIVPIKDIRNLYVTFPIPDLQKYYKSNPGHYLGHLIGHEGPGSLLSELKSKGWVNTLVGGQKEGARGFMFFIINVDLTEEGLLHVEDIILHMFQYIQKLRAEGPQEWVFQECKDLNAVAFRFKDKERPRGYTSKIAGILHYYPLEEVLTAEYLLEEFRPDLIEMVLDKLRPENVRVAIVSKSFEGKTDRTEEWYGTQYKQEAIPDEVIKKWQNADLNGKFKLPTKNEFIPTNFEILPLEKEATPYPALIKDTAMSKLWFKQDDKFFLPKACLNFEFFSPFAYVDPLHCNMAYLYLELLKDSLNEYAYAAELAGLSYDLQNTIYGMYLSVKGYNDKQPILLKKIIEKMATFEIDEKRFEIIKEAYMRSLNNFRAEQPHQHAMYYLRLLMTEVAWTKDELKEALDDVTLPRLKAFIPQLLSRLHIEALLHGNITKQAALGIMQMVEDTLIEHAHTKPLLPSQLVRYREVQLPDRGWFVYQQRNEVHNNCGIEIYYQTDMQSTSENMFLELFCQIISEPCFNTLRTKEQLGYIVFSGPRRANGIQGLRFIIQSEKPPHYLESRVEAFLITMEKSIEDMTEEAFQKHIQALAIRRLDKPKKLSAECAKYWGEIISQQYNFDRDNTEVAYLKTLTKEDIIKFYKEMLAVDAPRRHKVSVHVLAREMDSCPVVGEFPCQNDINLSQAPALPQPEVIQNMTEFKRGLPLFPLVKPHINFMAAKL

HEK293 [15] = test: membrane integrity loss in HEK cells – cell-based, fluorescence, cytotoxicity control for IDE activator project, dose response (AID 588440); type: functional; details: Homo sapiens;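 note: cytotoxicity by LDH release measuring loss of membrane integrity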
Insulin-degrading enzyme [16] = target: T6, Insulin-degrading enzyme; test: recombinant IDE activation, cell-free – biochemical, fluorescence polarization, counter-screen for IDE activator project, dose response (AID 588681)
[17] = microbe, parasite or virus in culture; type: functional; details: Mycobacterium tuberculosis
HEK293 [18] = test: optical interference in Abeta FP readout, dose response, artefact control for IDE activator project, biochemical, fluorescence polarization (AID 588442); type: functional, cell-based; details: Homo sapiens
[19] = target: T7, Ubiquitin-conjugating enzyme E2 N (Homo sapiens, UniProt P61088); type: functional;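 note: Dose-response confirmation in a TR-FRET assay detecting UBC13-driven polyubiquitin chain formation, inhibition measured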
T7 sequence (P61088 whole entry): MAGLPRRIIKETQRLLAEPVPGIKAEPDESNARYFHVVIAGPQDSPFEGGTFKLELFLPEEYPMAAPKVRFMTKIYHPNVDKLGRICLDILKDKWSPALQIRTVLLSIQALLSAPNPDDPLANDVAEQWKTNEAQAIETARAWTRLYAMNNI

[20] = Luminescence Cell-Based Dose Retest to Confirm Inhibitors of Cancer Stem Cells. [Related pubchem assays (depositor defined):AID2717, AID2721]; type: functional; details: Homo sapiens
[21] = cytotoxicity toward MDA-MB-231 breast cancer cells – cell-based, CellTiter-Glo luminescence, cherry-pick, cytotoxicity control for RAD54 inhibitor project, dose response (AID 651692); type: functional
[22] = target: Glycogen synthase kinase-3 alpha (Homo sapiens, UniProt P49840); test: Inhibition of Human GSK-3 alpha Activity Measured in Biochemical System Using Microfluidics - 2063-06_Inhibitor_Dose_DryPowder_Activity_Set2. [Related pubchem assays (depositor defined):AID2709]
[23] = target: Glycogen synthase kinase-3 beta (Homo sapiens, UniProt P49841); test: Inhibition of Human GSK-3 beta Activity Measured in Biochemical System Using Microfluidics - 2063-05_Inhibitor_Dose_DryPowder_Activity_Set2. [Related pubchem assays (depositor defined):AID2709]
Sequence of Glycogen synthase kinase-3 beta (P49841 whole entry): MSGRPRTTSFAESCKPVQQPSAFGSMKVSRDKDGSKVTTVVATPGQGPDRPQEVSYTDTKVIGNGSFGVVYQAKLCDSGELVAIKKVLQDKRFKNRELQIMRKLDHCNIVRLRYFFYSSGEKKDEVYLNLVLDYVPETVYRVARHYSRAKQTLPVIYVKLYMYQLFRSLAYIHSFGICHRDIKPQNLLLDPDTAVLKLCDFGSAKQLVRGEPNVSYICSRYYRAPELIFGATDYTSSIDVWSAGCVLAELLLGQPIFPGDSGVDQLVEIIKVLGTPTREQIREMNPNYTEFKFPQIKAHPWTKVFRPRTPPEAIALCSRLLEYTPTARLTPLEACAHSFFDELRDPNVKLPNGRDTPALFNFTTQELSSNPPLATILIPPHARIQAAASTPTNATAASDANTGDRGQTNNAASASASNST

Sequence of Glycogen synthase kinase-3 alpha (P49840 whole entry): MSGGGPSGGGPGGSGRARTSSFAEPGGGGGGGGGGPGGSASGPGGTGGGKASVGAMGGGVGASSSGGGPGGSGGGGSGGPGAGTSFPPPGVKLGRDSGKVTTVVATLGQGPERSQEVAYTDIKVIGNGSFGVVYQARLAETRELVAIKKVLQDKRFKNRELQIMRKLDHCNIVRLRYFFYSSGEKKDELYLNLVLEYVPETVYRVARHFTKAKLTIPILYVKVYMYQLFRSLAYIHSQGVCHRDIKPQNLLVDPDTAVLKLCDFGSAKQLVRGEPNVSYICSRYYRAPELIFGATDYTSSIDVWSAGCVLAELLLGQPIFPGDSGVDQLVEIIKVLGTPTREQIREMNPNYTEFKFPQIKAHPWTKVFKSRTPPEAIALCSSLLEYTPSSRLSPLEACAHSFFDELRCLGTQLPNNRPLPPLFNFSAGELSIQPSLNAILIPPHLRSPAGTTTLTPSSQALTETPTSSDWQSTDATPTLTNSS

O=[N+]([O-])c1ccc(-c2c[nH]c(SC(c3ccccc3)c3ccccc3)n2)cc1
IC50 (Orexin receptor type 2 [1]): > 50 µM (inactive)
IC50 [2]: 7.34 µM (active)
EC50 [3]: 6.07 µM (active)
IC50 (Orexin receptor type 2 [4]): 29.7 µM (inactive)
EC50 (Streptokinase A): 15.2 µM (active)
AC50 (CAAX prenyl protease 2): 2.05 µM (active)
AC50 [5]: 19 µM (active)
IC50 (CHO-K1): > 66.2 µM (inactive)
IC50 [6]: 32.6 µM (inactive)
AC50 [7]: 7.88 µM (active)
IC50 [8]: 5.72 µM (active)
EC50 (Streptococcus): > 150 µM (not active)
AC50 [9]: 22.2 µM (active)
AC50 [10]: 19.1 µM (active)

O=C(Cc1cccs1)N(Cc1ccco1)C1(C(=O)NC2CCCCC2)CCCCC1
EC50 [11]: 24.2 µM (active)
EC50 [12]: 159 µM (active)
EC50 [13]: 431 µM (active)

Cc1ccc(C)c(N2CCN(C(=S)Nc3ccc4nc(N5CCN(C)CC5)cc(C)c4c3)CC2)c1
EC50 (Insulin-degrading enzyme [14]): > 54.7 µM (inactive)
IC50 (HEK293 [15]): 18 µM (inactive)
EC50 (Insulin-degrading enzyme [16]): > 54.7 µM (inactive)
CC50 [17]: 17.1 µM (active)
EC50 (HEK293 [18]): > 55.9 µM (inactive)
IC50 [19]: > 20 µM (inactive)
AC50 [20]: 13.3 µM (active)
AC50 [21]: 34.8 µM (active)

Nc1nc(NCCCN2CCOCC2)nc(Nc2cccc(Cl)c2)c1[N+](=O)[O-]
AC50 [22]: 0.429 µM (active)
AC50 [23]: 0.253 µM (active)
